The values below come from paper PMC13104648 (Acta Pharmaceutica Sinica. B, 2025).

The subject of one experiment is Sprague–Dawley rats. The experiment in a line: Arterial blood pressure in anesthetized rats. Particulars: 55 nmol/kg i.v.
Another experiment has as its system CHO-hNTSR1 cells. The experiment in a line: Electric cell-substrate impedance sensing. The experiment is classed as cell-based, Chinese hamster. As to conditions: 10 μmol/L; for maximum change factor (normalized resistance): 4000 Hz, n = 3 in duplicate.
A further experiment deals with 318 distinct 7TMRs. The experiment can be described thus: PRESTO-Tango GPCRome panel. The experiment is classed as cell-based, human. As to conditions: 10 μmol/L.
The next experiment deals with rats. As to conditions: chronic neuropathic and inflammatory pain paradigms; cited from earlier work.
A further experiment deals with hNTSR1 (Gα13) (Homo sapiens, UniProt P30989). The experiment in a line: BRET^2 G protein dissociation, allosteric modulator assay. It counts as cell-based. Particulars: pre-treatment up to 100 μmol/L. For orientation: Bioluminescence resonance energy transfer reports proximity on the nanometre scale.
The target in another experiment is NTSR1 (β-arrestin 1) (Homo sapiens, UniProt P30989). The experiment in a line: BRET^2 βarr recruitment, allosteric modulator assay. The experiment is classed as cell-based. As to conditions: pre-treatment up to 100 μmol/L.
In another experiment the target is NTSR1 (β-arrestin 2) (Homo sapiens, UniProt P30989). The experiment is described as above. The experiment is classed as cell-based. As to conditions: pre-treatment up to 100 μmol/L.
A further experiment deals with mice. Particulars: cited from earlier work.
Setting [1] is: anesthetized male rats, mean ± SEM, n = 5.
The mark [2] stands for this setting: anesthetized male rats, mean ± SEM.

hNTSR1 (Gα13), sequence (P30989 whole entry): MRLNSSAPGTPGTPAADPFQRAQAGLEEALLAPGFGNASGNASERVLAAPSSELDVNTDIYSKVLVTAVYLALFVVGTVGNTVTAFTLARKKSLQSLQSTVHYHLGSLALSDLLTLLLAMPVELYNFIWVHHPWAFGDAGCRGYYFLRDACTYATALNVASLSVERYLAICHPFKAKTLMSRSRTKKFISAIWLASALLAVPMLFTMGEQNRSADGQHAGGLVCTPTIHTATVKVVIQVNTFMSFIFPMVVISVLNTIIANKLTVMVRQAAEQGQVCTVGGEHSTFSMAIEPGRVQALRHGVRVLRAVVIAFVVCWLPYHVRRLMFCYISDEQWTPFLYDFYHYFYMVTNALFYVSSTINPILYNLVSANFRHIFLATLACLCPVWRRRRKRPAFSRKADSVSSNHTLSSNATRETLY
NTSR1 (β-arrestin 1), sequence (P30989 whole entry): as above
NTSR1 (β-arrestin 2), sequence (P30989 whole entry): as above

As to `CC[C@H](C)[C@H](NC(=O)[C@H](Cc1ccc(O)cc1)NC(=O)[C@@H]1CCCN1C(=O)[C@H](CCCNC(=N)N)NC(=O)[C@@H](N)CCCNC(=N)N)C(=O)N[C@@H](CC(C)C)C(=O)O` [NT(8-13), Neurotensin (8-13), reference compound], in the experiment with Sprague–Dawley rats (setting [1]), the “ΔMABP 20 s post-injection” value is recorded as −29 ± 3 mm Hg, the “ΔMABP 75 s post-injection” value is listed as −7 ± 3 mm Hg and the “ΔMABP 200 s post-injection” value is reported as −28 ± 6 mm Hg.
In the case of `CCCCCCCCCCCCCCCC(=O)N[C@@H](C)C(=O)N[C@@H](CCCNC(=N)N)C(=O)N[C@@H](CCCCN)C(=O)N[C@@H](CCCCN)C(=O)N[C@@H](CO)C(=O)N[C@@H](CC(C)C)C(=O)N[C@@H](CCC(N)=O)C(=O)N[C@@H](CO)C(=O)N[C@@H](CC(C)C)C(=O)N[C@@H](CCC(N)=O)C(=O)N[C@@H](CO)C(=O)N[C@H](C(=O)N[C@H](C(=O)N[C@@H](Cc1c[nH]cn1)C(N)=O)C(C)C)[C@@H](C)O` [PP-001], in the experiment on CHO-hNTSR1 cells, the baseline-to-baseline timeframe is 45 min and the “time of maximum change factor post-stimulation” value worked out at 1110 s. For the same compound, the “maximum change factor (normalized resistance)” value in the experiment with CHO-hNTSR1 cells (mean ± SEM) was 1.06 ± 0.01. Also, the “time at which the trace intercepts / returns to baseline” value in the experiment with CHO-hNTSR1 cells (post-stimulation) amounted to 2700 s. The “βarr2 recruitment across a panel of 318 distinct 7TMRs” value in the experiment with 318 distinct 7TMRs is listed as “did not induce βarr2 recruitment”. In addition, the reversing nociceptive behaviors result in the experiment on rats is recorded as “effective in reversing nociceptive behaviors in rats”. In addition, in the experiment with Sprague–Dawley rats, the “delay in hypotensive response” value is on record as 40 s and the “time of minimum ΔMABP post-injection” value is reported as 105 s. Further, in the experiment with Sprague–Dawley rats (setting [2]), the “minimum ΔMABP of first decline” value was −37 ± 4 mm Hg and the “ΔMABP 300 s post-injection” value is reported as −25 ± 3 mm Hg.
For `CCCCCCCCCCCCCCCC(=O)O` [Palmitate, palmitate], on hNTSR1 (Gα13), the “effect on potency or efficacy of NT, Gα13” value is recorded as “not affected”. The “effect on potency or efficacy of NT, βarr1” value at NTSR1 (β-arrestin 1) is “not affected”. Besides, on NTSR1 (β-arrestin 2), the “effect on potency or efficacy of NT, βarr2” value is given as “not affected”.
For the compound `COc1ccccc1C1CCN(c2nc(C3(F)CC3)nc3ccc(N(C)CCO)cc23)CC1` [SBI-553], the hypotension result with mice is given as “does not induce hypotension in mice”.
As for `CCCCCCCCCCCCCCCC(=O)N[C@@H](C)C(=O)N[C@@H](C)C(=O)N[C@@H](CCCCN)C(=O)N[C@@H](CCCCN)C(=O)N[C@@H](CO)C(=O)N[C@@H](CC(C)C)C(=O)N[C@@H](CCC(N)=O)C(=O)N[C@@H](CO)C(=O)N[C@@H](CC(C)C)C(=O)N[C@@H](CCC(N)=O)C(=O)N[C@@H](CO)C(=O)N[C@H](C(=O)N[C@H](C(=O)N[C@@H](Cc1c[nH]cn1)C(N)=O)C(C)C)[C@@H](C)O` [[Ala^2]PP-001], the resistance response profile result in the experiment on CHO-hNTSR1 cells was “completely inactive”. The “change to MABP” value in the experiment on Sprague–Dawley rats (n = 5) is on record as “no change to MABP was observed”.
For the compound `CCCCCCCCCCCCCCCC(=O)N[C@@H](C)C(=O)N[C@@H](CCCNC(=N)N)C(=O)N[C@@H](CCCCN)C(=O)N[C@@H](CCCCN)C(=O)N[C@@H](CO)C(=O)N[C@@H](CC(C)C)C(=O)N[C@@H](CCC(N)=O)C(=O)N[C@@H](CO)C(=O)N[C@@H](CC(C)C)C(=O)N[C@@H](CCC(N)=O)C(=O)N[C@@H](CO)C(=O)N[C@H](C(=O)N[C@@H](C)C(=O)N[C@@H](Cc1c[nH]cn1)C(N)=O)[C@@H](C)O` [[Ala^13]PP-001], the “time of maximum change factor post-stimulation” value in the experiment on CHO-hNTSR1 cells came to 1962 s. For the same compound, the “maximum change factor (normalized resistance)” value in the experiment on CHO-hNTSR1 cells (mean ± SEM) came out at 1.06 ± 0.02. In the experiment on CHO-hNTSR1 cells (mean ± SEM, n = 3), the “change factor at 3000 s (50 min) post-stimulation” value was determined as 1.05 ± 0.03. In addition, in the experiment on Sprague–Dawley rats, the “delay in hypotensive response” value was 40 s, the “time of minimum ΔMABP post-injection” value is on record as 93 s and the “ΔMABP lower than that of PP-001 at 300 s” value amounted to 19 ± 5 mm Hg. Also, in the experiment with Sprague–Dawley rats (setting [2]), the “minimum ΔMABP of first decline” value was −36 ± 4 mm Hg and the “ΔMABP 300 s post-injection” value is listed as −44 ± 2 mm Hg. The “ΔMABP 140 s post-administration” value in the experiment with Sprague–Dawley rats (n = 5) is −31 ± 4 mm Hg.
